Results as given in US20080306076A1, “MODULATION OF CHEMOSENSORY RECEPTORS AND LIGANDS ASSOCIATED THEREWITH” (SENOMYX, INC., priority 2007, published 2008).

Biological target: T1, hT1R1 E301A (Homo sapiens, UniProt Q7RTX1, E301A)
T1 construct: expressed in transfected cells; host or cells: HEK293, transient transfection
T1 sequence (Q7RTX1 21-841 E301A): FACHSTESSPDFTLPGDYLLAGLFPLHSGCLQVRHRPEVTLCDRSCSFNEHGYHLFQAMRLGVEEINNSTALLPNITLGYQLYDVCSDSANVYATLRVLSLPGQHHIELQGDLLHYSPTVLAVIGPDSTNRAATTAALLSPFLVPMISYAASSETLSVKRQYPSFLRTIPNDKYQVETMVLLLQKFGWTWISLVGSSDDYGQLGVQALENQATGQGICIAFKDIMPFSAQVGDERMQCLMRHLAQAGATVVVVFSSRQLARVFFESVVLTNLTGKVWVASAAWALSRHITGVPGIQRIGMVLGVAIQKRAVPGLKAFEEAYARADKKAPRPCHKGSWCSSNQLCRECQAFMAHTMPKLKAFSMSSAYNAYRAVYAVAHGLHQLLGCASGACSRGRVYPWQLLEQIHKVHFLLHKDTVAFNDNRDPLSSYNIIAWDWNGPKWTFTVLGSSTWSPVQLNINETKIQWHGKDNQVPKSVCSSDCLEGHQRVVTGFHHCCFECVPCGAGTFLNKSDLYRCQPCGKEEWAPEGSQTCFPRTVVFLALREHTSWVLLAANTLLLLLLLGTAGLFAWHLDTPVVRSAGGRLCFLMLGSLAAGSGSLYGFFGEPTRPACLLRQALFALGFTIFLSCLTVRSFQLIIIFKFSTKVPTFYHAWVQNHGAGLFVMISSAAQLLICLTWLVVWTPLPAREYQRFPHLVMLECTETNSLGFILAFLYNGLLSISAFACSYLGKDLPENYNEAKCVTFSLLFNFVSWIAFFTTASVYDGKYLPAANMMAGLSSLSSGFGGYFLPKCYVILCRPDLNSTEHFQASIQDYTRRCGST
T1 sequence (Q923K1 21-858 partner): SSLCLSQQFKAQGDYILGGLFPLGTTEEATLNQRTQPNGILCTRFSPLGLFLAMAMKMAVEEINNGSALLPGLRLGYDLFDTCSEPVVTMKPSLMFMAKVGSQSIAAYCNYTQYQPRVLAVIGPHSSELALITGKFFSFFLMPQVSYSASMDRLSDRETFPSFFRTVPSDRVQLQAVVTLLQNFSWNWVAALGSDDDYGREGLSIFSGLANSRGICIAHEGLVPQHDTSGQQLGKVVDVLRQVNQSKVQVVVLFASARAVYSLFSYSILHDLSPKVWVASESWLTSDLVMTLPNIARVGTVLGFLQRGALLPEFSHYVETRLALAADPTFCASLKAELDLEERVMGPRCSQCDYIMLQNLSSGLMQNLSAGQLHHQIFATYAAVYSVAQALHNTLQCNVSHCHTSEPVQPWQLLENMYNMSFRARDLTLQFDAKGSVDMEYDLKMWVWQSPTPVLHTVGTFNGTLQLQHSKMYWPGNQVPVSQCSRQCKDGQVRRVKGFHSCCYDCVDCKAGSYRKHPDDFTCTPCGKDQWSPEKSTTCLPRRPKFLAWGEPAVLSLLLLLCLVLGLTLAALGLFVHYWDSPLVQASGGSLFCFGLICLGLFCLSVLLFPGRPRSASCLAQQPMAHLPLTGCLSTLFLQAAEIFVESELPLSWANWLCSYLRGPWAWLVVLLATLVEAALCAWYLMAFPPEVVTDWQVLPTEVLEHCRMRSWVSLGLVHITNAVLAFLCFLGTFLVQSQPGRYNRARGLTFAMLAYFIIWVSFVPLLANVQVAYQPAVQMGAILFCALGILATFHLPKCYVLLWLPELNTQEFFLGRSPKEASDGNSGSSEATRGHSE
Assay: Mutagenesis study, hT1R1 mutant E301A
Format: cell-based
Conditions: E301 mutant, FIG. 11
Text: In order to further define the interaction sites of umami stimuli, we performed site-directed mutagenesis on human T1R1 VFT. The mutagenesis was done using the routine PCR-based method. […] were transiently transfected into HEK293 cell together with the rat T1R3 wild type cDNA, and the transfected cells were characterized using an automated FLIPR machine or a calcium imaging system as described in our previous patent applications.

`N[C@@H](CCC(=O)O)C(=O)O` [L-Glu, L-glutamate] was tested, and the “activity against L-Glu” value was “significant reduced activity”.
